For the data set the following is noted: same protocol, no polymer.

For `C[C@@H]1[C@H](O)[C@@H](C)/C=C/C=C/C=C/C=C/C=C/C=C/C=C/[C@H](O[C@@H]2O[C@H](C)[C@@H](O)[C@H](N)[C@@H]2O)C[C@@H]2O[C@](O)(C[C@@H](O)C[C@@H](O)[C@H](O)CC[C@@H](O)C[C@@H](O)CC(=O)O[C@H]1C)C[C@H](O)[C@H]2C(=O)O` [Amphotericin B], the “water solubility of Amphotericin B” value was “approx. 0.4 μg/mL”.

Values taken from patent US9402908B2, “Polymeric delivery systems for active agents” (priority 2008, dated 2016).
